# Data published in patent US20260200965A1, “NOVEL COMPOUND DERIVED FROM LORANTHUS TANAKAE AND ANTICANCER USE THEREOF” (KOREA INSTITUTE OF ORIENTAL MEDICINE, priority 2022, published 2026).
# Values joined by “and” are separate entries in the source; they are usually repeats but may differ in a detail not shown here. Identical values can stand only once.
# Key:
# [1] = system: NHDF (normal human dermal fibroblast) cells; experiment: Toxicity test in normal cells (WST-8); format: cell-based
# Experimental: NHDF (normal human dermal fibroblast; ATCC, USA) cells were seeded at about 5,000 cells per well in a 96-well plate and stabilized for 24 hours, and then treated with Lotanoside B isolated in Example 2 at various concentrations (0, 6.25, 12.5, 25, or 50 μM). As a control group, 5-FU (anticancer drug) and kaempferol were treated at various concentrations (5-FU: 0, 1.25, 2.5, 5 or 10 μM; kaempferol: 0, 5, 10, 20 or 40 μM). After culturing in a CO2 incubator for 48 hours, WST-8 ((2-(2-methoxy-4-nitrophenyl)-3-(4-nitrophenyl)-5-(2,4-disulfophenyl)-2H-tetrazolium, monosodium salt) reagent was treated, and after culturing for 2 hours, the optical density (OD) was measured at a wavelength of 450 nm by using a microplate reader.
# [2] = system: DMBA/TPA-induced skin cancer; format: in vivo, ICR mice
# Experimental: Female ICR mice (5 weeks old, 20~25 g) were purchased as experimental animals from Samtaco Co., Ltd. (Osan, Korea), and were provided with water and food freely in a cage equipped with a constant temperature and humidity device. After a one-week adaptation period, the hair on the back of the mice was removed, and they were divided into six groups as shown in Table 1 and raised for 20 weeks.
# When DMBA (7,12-Dimethylbenz[a]anthracene), which induces carcinogenesis, is treated to the depilated area and TPA (12-Otetradecanoylphorbol-13-acetate, promoter) is continuously applied, skin inflammation and skin cancer are induced. […] TPA, Lotanoside B and 5-FU were diluted in acetone and topically treated to the back area twice a week, and the number and size of the tumors formed and the weight of the mice were measured.
# [3] = system: mouse skin epithelial cell JB6; experiment: TPA-induced cell transformation colony growth inhibition (soft agar); format: cell-based; conditions: TPA 10 ng/ml, JB6 colonies, about 2 weeks
# Experimental: (§1) The carcinogenicity inhibitory effect of the extract of Loranthus tanakae Franch. & Sav was determined in a carcinogenic model in which the mouse skin epithelial cell JB6 (ATCC, USA) was treated with EGF, which is a growth factor that increases cancer cell occurrence, and TPA, which is a tumor-promoting factor, to induce malignant transformation.
# (§2) Specifically, agar mix (0.5%) including BME, FBS, glutamine, gentamicin, PBS and 1.25% agar, EGF (10 ng/ml) or TPA (10 ng/ml) and the 70% ethanol extract of Loranthus tanakae Franch. & Sav prepared in Example 1-1 were mixed, dispensed into 6-well plates at 3 mL per well, and solidified (bottom agar). Mouse skin epithelial cells JB6 (ATCC, USA) were detached by trypsin treatment, washed with 1×PBS, and resuspended in 10% BME to determine the cell number. 8,000 cells were prepared per well, and agar mix (0.3%), EGF or TPA and the 70% ethanol extract of Loranthus tanakae Franch. & Sav prepared in Example 1-1 were mixed, dispensed into 1 mL per well, and solidified (upper agar). After culturing in a CO2 incubator for about 2 weeks, colonies were photographed under a microscope, and the number of colonies was counted by using Image-Pro Plus software (v.6.0) program (Media Cybernetics, Silver Spring, MD, USA).
# [4] = system: SKMEL-5 melanoma cancer cells; experiment: Cancer cell growth inhibition (WST-8 assay); format: cell-based
# Experimental: SKMEL-5 melanoma cancer cells (ATCC, USA) were dispensed into a 96-well plate at 1,000 cells per well and stabilized for 24 hours, and then treated with Lotanoside B at different concentrations (0, 6.25, 12.5, 25 or 50 μM). As a control group, 5-FU (anticancer drug) and kaempferol were treated at different concentrations, respectively (5-FU: 0, 1.25, 2.5, 5 or 10 μM; kaempferol: 0, 5, 10, 20 or 40 μM). Afterwards, the cells were cultured in a CO2 incubator for 72 hours, and then treated with WST-8 ((2-(2-methoxy-4-nitrophenyl)-3-(4-nitrophenyl)-5-(2,4-disulfophenyl)-2H-tetrazolium, monosodium salt) reagent, and after culturing for about 2 hours, the optical density (OD) was measured at a wavelength of 450 nm by using a microplate reader.
# [5] = system: mouse skin epithelial cell JB6; experiment: EGF-induced cell transformation colony growth inhibition (soft agar); format: cell-based; conditions: EGF 10 ng/ml, JB6 colonies, about 2 weeks
# Experimental: as §1, §2
# [6] = 0.1 and 1 μmole topical twice a week, 20 weeks, vs DMBA/TPA group, reduction greater at 1 μmole
structure (smiles),measurement,setting,value
"O=c1[nH]cc(F)c(=O)[nH]1 [5-FU, fluorouracil]",concentration at which toxicity begins to show,"[1]; human, 48 h",10 µM
"COc1cc(O)c2c(=O)c(OC3OC(C)C(O)C(O)C3O)c(-c3ccc(OC4OC(COC(=O)/C=C/c5ccccc5)C(O)C(O)C4O)c(O)c3)oc2c1 (stereo not drawn) [Lotanoside B, rhamnetin-3-O-rhamnoside-4′-O-(6″-O-cinnamoyl)-glucoside]",number of tumors,[2]; [6],decreased
same,tumor area,[2]; [6],decreased
same,tumor incidence,[2]; [6],decreased
same,effect in inhibiting skin cancer formation compared to 5-FU,[2]; 5-FU 0.1 μmole as positive control,superior effect in inhibiting skin cancer formation compared to 5-FU
same,concentration at which toxicity begins to show,"[1]; human, 48 h",> 50 µM
same,inhibition rate compared to the TPA treatment group,[3]; 50 μM,76.2%
same,inhibition at 50 µM,"[3]; Mus musculus, Epithelial cell, 336 h, 50 μM, read-out: inhibition rate compared to the TPA treatment group",74.2%
same,IC50,"[4]; Homo sapiens, SK-MEL-5, SKMEL-5, 72 hours, WST-8",32.1 µM
same,cancer cell growth inhibition effect compared to kaempferol,"[4]; SKMEL-5, 72 hours, WST-8",superior cancer cell growth inhibition effect compared to kaempferol
same,cancer cell growth inhibition effect,"[4]; SKMEL-5, at a concentration that did not exhibit toxicity",78.5%
same,inhibition at 50 µM,"[5]; Mus musculus, Epithelial cell, 336 h, 50 μM, read-out: inhibition rate compared to the EGF treatment group",66.7%
O=c1c(O)c(-c2ccc(O)cc2)oc2cc(O)cc(O)c12 [kaempferol],concentration at which toxicity begins to show,"[1]; NHDF, 48 hours, WST-8",40 µM
COc1cc(O)c2c(=O)c(OC3OC(CO)C(O)C(O)C3O)c(-c3ccc(O)c(O)c3)oc2c1 (stereo not drawn) [rhamnetin-3-O-glucoside],inhibition rate compared to the TPA treatment group,[3]; test concentration not given,76.2% and 74.2%
same,inhibition rate compared to the EGF treatment group,[5]; test concentration not given,92.9%
